# Patent publication US20070225171A1 (priority 2001, published 2007)
# Like-named read-outs stand apart in the source and are kept apart here.
# Key:
# [1] = test system: Plants expressing the dioxygenase encoded by the tfdA gene; test: Herbicide tolerance of plants expressing the tfdA dioxygenase; format: in vivo; conditions: at lower levels of herbicide than for 2,4-D; data not shown
# Source text: See, e.g., Llewellyn and Last, in Herbicide-Resistant Crops Chapter 10, pages 159-174 (Duke, ed., CRC Lewis Publishers 1996). Preferably, additional bacterial codons of the tfdA coding sequence are replaced by plant-preferred codons to obtain better expression of the encoded dioxygenase. […] See, e.g., Llewellyn and Last, in Herbicide-Resistant Crops Chapter 10, pages 159-174 (Duke, ed., CRC Lewis Publishers 1996) and U.S. Pat. Nos. 6,100,446 and 6,153,401.
# [2] = test system: Plants expressing the dioxygenase encoded by the tfdA gene; conditions: reported in Llewellyn and Last 1996 and U.S. Pat. Nos. 6,100,446 and 6,153,401; cited from earlier work
# [3] = test system: Transgenic cotton plants (transformed with tfdA gene); test: Seed cotton yield after spraying 2,4-D amine on transgenic cotton; format: in vivo; conditions: for SEED COTTON YIELD: herbicide rate 1 lb/acre, average of 4 replications
# Protocol: Transgenic cotton plants (transformed as described in Bayley et al., Theor. Appl. Genet., 83:645-649 (1992)) were grown from transgenic seed obtained from USDA, Lubbock, Tex. The cotton plants were sprayed with 2,4-D amine at 1 lb of active ingredient per acre.
structure (smiles),measurement,setting,value
"Cc1cc(Cl)ccc1OCC(=O)O [MCPA, 2-methyl-4-chlorophenoxyacetic acid]",tolerance of plants to the herbicide,[1],tolerant
"O=C(O)COc1cc(Cl)c(Cl)cc1Cl [2,4,5-T, 2,4,5-trichlorophenoxyacetic acid]",tolerance of plants to the herbicide,[2],not to be tolerant
"O=C(O)COc1ccc(Cl)cc1 [4-CPA, 4-chlorophenoxyacetic acid]",tolerance of plants to the herbicide,[2],tolerant
"CNC.O=C(O)COc1ccc(Cl)cc1Cl [2,4-D amine]",effect on yield of cotton,[3]; 1 lb of active ingredient per acre,significantly increased the yield of cotton
same,"PERCENT INCREASE, AVERAGE","[3]; average of the seven cotton lines, 1 lb/acre vs rate 0",13.0
same,PERCENT INCREASE,"[3]; cotton line X-2600, 1 lb/acre vs rate 0",8.0
same,SEED COTTON YIELD,[3]; cotton line X-2600,2145 Pounds/acre
same,PERCENT INCREASE,"[3]; cotton line X-2603, 1 lb/acre vs rate 0",7.4
same,SEED COTTON YIELD,[3]; cotton line X-2603,2790 Pounds/acre
same,PERCENT INCREASE,"[3]; cotton line X-2606, 1 lb/acre vs rate 0",19.5
same,SEED COTTON YIELD,[3]; cotton line X-2606,3067 Pounds/acre
same,PERCENT INCREASE,"[3]; cotton line X-2609, 1 lb/acre vs rate 0",−1.1
same,SEED COTTON YIELD,[3]; cotton line X-2609,2301 Pounds/acre
same,PERCENT INCREASE,"[3]; cotton line X-2614, 1 lb/acre vs rate 0",33.6
same,SEED COTTON YIELD,[3]; cotton line X-2614,2660 Pounds/acre
same,PERCENT INCREASE,"[3]; cotton line X-2615, 1 lb/acre vs rate 0",15.3
same,SEED COTTON YIELD,[3]; cotton line X-2615,2380 Pounds/acre
same,PERCENT INCREASE,"[3]; cotton line X-2619, 1 lb/acre vs rate 0",8.7
same,SEED COTTON YIELD,[3]; cotton line X-2619,2235 Pounds/acre
"O=C(O)CCCOc1ccc(Cl)cc1Cl [2,4-DB, 2,4-dichlorophenoxybutyric acid]",tolerance of plants to the herbicide,[1],tolerant
